Reference: patent publication US6864086B2, “Nitric oxide-scavenging system for culturing oocytes, embryos, or other cells” (Board of Supervisors of Louisiana State University and …, priority 1998, dated 2005)
Marks after values point to notes of the source that are not given here.

System: inseminated bovine oocytes co-cultured with cumulus-granulosa cells
Assay: Example 5: Hb (1 μg/ml) added to mBECM-C at different times of co-culture with CGs
Format: cell-based
Conditions: for No of embryos developed to the 2-cell / % of embryos developed to the 2-cell: examined 48 h; for No of embryos developed to the 8-cell / % of embryos developed to the 8-cell: examined 60 h; for No of embryos developed to the 16-cell / % of embryos developed to the 16-cell: examined 120 h; for No of embryos developed to the Morula / % of embryos developed to the Morula: examined 144 h; for No of embryos developed to the Blastocyst / % of embryos developed to the Blastocyst: examined 192 h
Description: mBECM containing 10 μM β-mercaptoethanol was used to culture embryos, as described in J. Lim et al., “Roles of growth factors in the development of bovine embryos fertilized in vitro and cultured singly in a defined medium,” Reprod. Fertil. Dev., 8, 1199-1205 (1996). To culture individual 8-cell embryos we used mBECM supplemented with 1 ng/ml platelet derived growth factor type AB (PDGF; Upstate Biotechnology Inc., Lake Placid, N.Y.), 1 ng/ml transforming growth factor-β (TGF; R & D System, Minneapolis, Minn.), 50 ng/ml arachidonic acid (AA; Cayman Chemical Co., Ann Arbor, Mich.), 100 μM glutathione (GSH; Sigma Co.) and 1 mg/ml polyvinyl alcohol (PVA) (mBECM-S). mBECM to which 10% (v/v) FBS was added (mBECM-C) was used for co-culturing inseminated zygotes with CGs and for producing 8-cell embryos. Osmolarity of the medium was maintained within the range of 265-290 mOsm.
The bovine cumulus-oocyte complexes (COCs) used were collected in Madison, Wis. (BOMED, Inc.), and were shipped in 2-ml of maturation medium in a battery powered incubator via overnight express mail service. Oocytes matured during transit and arrived within 24 h after exposure to maturation medium, pre-equilibrated at 39° C. in 5% CO2 in air. At 22-24 h after exposure to the medium, the COCs were inseminated in vitro as described in J. Lim et al., “Intracytoplasmic glutathione concentration and the role of β-mercaptoethanol in preimplantation development of bovine embryos,” Theriogenology, 46, 429-439 (1996). At 18 h post-insemination, COCs were cultured in groups (30-35 embryos) in a 4-well multidish (Nunc, Roskilde, Denmark) containing 0.8-ml of mBECM-C. Embryos were dislodged from CGs at 36-48 h post-insemination.
In Example 1, embryos (83-85 per group) collected 18 h post-insemination were cultured in mBECM-C, to which 0, 0.008, or 0.04 mM SNP was added at 18 or 60 h post-insemination. In Example 2, 8-cell embryos (80 per group) were produced in a co-culture system containing CGs and mBECM-C, and then beginning at 60 h post-insemination were cultured singly in a defined culture medium (mBECM-S), to which 0, 0.0016, 0.008, or 0.04 mM of SNP (S-0501, Sigma Co.) was added. In Example 3 embryos, either uncleaved (n=99) or developed to the 2-cell stage (90), were collected 48 h post-insemination; and cleaved embryos, either developed to the morula stage (69) or degenerate (63) were collected 144 h post-insemination. NO metabolites were then measured in the embryos. In Example 4, three groups of 95 zygotes each were co-cultured with CGs in mBECM-C, to which 0, 1, or 10 μg/ml Hb (bovine, mainly methemoglobin, H-2500, Sigma Co.) was added. […] In Example 6, inseminated oocytes (93 per group) were cultured in the presence or absence of CGs in mBECM-C to which either 0 or 1 μg/ml Hb was added. In Example 7, 8-cell embryos (100 per group), obtained after culture in mBECM-C supplemented with Hb (1 μg/ml), were cultured singly in mBECM-S, with or without Hb.
Oocytes or 8-cell embryos were randomly and equally allocated to each treatment group. In Examples 1, 2, and 4-7, oocytes or embryos that had developed to the 2-cell, 8-cell, >8-cell, 16-cell morula, and blastocyst stages were individually scored ‘1’ (developed) at 48, 60, 96, 120, 144 and 192 h post-insemination, respectively. […] Sums of the scores in each stage of development were evaluated by analysis of variance (ANOVA) using the general linear model (PROC-GLM) in the SAS program software. In Example 3, concentrations of NO metabolites in embryos were subjected to ANOVA. […] Differences were regarded as statistically significant where P values were less than 0.05.

[1] = Hb 1 μg/ml added 18 h post-insemination (1-cell)
[2] = Hb 1 μg/ml added 18 h post-insemination (1-cell), 104 oocytes
[3] = Hb 1 μg/ml added 60 h post-insemination (8-cell)
[4] = Hb 1 μg/ml added 60 h post-insemination (8-cell), 104 oocytes
[5] = Hb 1 μg/ml added 144 h post-insemination (Morula)
[6] = Hb 1 μg/ml added 144 h post-insemination (Morula), 103 oocytes

hemoglobin [Hb]
Ratio of blastocysts to morulae [1]: 0.74
No of embryos developed to the 2-cell [2]: 76
No of embryos developed to the 8-cell [2]: 52
No of embryos developed to the 16-cell [2]: 45
No of embryos developed to the Morula [2]: 34
No of embryos developed to the Blastocyst [2]: 25
% of embryos developed to the 2-cell [1]: 73%
% of embryos developed to the 8-cell [1]: 50%
% of embryos developed to the 16-cell [1]: 43%
% of embryos developed to the Morula [1]: 33%
% of embryos developed to the Blastocyst [1]: 24%
Ratio of blastocysts to morulae [3]: 1.00
No of embryos developed to the 2-cell [4]: 67
No of embryos developed to the 8-cell [4]: 40
No of embryos developed to the 16-cell [4]: 35
No of embryos developed to the Morula [4]: 30
No of embryos developed to the Blastocyst [4]: 30
% of embryos developed to the 2-cell [3]: 64%
% of embryos developed to the 8-cell [3]: 38%
% of embryos developed to the 16-cell [3]: 34%
% of embryos developed to the Morula [3]: 29%
% of embryos developed to the Blastocyst [3]: 29%
Ratio of blastocysts to morulae [5]: 0.96
No of embryos developed to the 2-cell [6]: 64
No of embryos developed to the 8-cell [6]: 34
No of embryos developed to the 16-cell [6]: 28
No of embryos developed to the Morula [6]: 23
No of embryos developed to the Blastocyst [6]: 22 (22)^c,d
% of embryos developed to the 2-cell [5]: 62%
% of embryos developed to the 8-cell [5]: 33%
% of embryos developed to the 16-cell [5]: 27%
% of embryos developed to the Morula [5]: 22%
% of embryos developed to the Blastocyst [5]: 22 (22)^c,d %
proportion of blastocysts (Hb 1 μg/ml added at 18 or 60 h post-insemination, controls 13%): 24-29%
